Data: patent publication US20240158446A1, “CYCLIC COMPOUND HAVING SELECTIVE INHIBITORY ACTION ON KRAS OVER HRAS AND NRAS” (CHUGAI SEIYAKU KABUSHIKI KAISHA, priority 2021, published 2024)
Like-named read-outs stand apart in the source and are kept apart here.

Experiments:
[1] = tested on: human lung cancer strain NCI-H441;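 note: cell proliferation inhibition after four days measured by CellTiter-Glo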
[2] = target: GDP-bound NRAS wild-type protein (Homo sapiens, UniProt P01111); experiment: Binding to NRAS by surface plasmon resonance (SPR), Single Cycle Kinetics; details: for NRAS/KRAS (ratio of KD value for NRAS to KD value for KRAS): SPR, GDP-bound NRAS wild-type protein vs GDP-bound KRAS wild-type protein
Chain of GDP-bound NRAS wild-type protein (P01111 whole entry): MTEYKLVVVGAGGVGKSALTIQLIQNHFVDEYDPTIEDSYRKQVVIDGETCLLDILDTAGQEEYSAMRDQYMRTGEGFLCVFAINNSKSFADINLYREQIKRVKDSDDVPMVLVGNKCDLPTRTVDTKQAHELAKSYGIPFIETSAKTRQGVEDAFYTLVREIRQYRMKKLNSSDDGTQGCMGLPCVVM

[3] = target: GDP-bound HRAS wild-type protein (Homo sapiens, UniProt P01112); experiment: Binding to HRAS by surface plasmon resonance (SPR), Single Cycle Kinetics; details: for HRAS/KRAS (ratio of KD value for HRAS to KD value for KRAS): SPR, GDP-bound HRAS wild-type protein vs GDP-bound KRAS wild-type protein
Chain of GDP-bound HRAS wild-type protein (P01112 whole entry): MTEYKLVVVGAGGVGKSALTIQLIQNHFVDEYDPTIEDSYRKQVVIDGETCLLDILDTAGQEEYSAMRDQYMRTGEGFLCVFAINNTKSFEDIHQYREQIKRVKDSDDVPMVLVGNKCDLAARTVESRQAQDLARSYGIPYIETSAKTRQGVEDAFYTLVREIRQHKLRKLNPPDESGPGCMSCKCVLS

[4] = target: GDP-bound KRAS wild-type protein (Homo sapiens, UniProt P01116); experiment: Binding to KRAS by surface plasmon resonance (SPR), Single Cycle Kinetics; details: GDP-bound KRAS wild-type protein, read-out: KRAS KD
Chain of GDP-bound KRAS wild-type protein (P01116 whole entry): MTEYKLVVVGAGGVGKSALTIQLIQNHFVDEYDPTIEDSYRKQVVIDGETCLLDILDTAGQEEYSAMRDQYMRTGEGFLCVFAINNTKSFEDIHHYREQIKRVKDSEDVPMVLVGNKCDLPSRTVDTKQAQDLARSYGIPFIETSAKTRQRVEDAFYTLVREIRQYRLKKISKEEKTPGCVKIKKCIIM

[5] = SPR, Single Cycle Kinetics, 1:1 binding model

CCO[C@@H]1C[C@H]2C(=O)NC3(CCC3)C(=O)N(C)[C@@H](C3CCCC3)C(=O)N(C)[C@H](C(=O)N3CCCC3)CC(=O)N(C)[C@@H](C)C(=O)N[C@@H]([C@@H](C)CC)C(=O)N(C)CC(=O)N(C)[C@H]3C/C=C\CCN(C3=O)[C@@H](Cc3ccc(C(F)(F)F)cc3)C(=O)N(C)CC(=O)N[C@@H](CCc3cc(F)c(C(F)(F)F)c(F)c3)C(=O)N2C1 [PP1297, (2S,8S,12R,14S,20S,23S,27S,30S,36S,38Z)-20-cyclopentyl-8-[2-[3,5-difluoro-4-(trifluoromethyl)phenyl]ethyl]-12-ethoxy-4,19,22,26,27,32,35-heptamethyl-30-[(1S)-1-methylpropyl]-23-(pyrrolidine-1-carbonyl)-2-[[4-(trifluoromethyl)phenyl]methyl]spiro[1,4,7,10,16,19,22,26,29,32,35-undecazatricyclo[34.5.1.0^10,14]dotetracont-38-ene-17,1′-cyclobutane]-3,6,9,15,18,21,25,28,31,34,42-undecone]
IC50 [1]: 23.1 nM | NRAS/KRAS (ratio of KD value for NRAS to KD value for KRAS) ([2]; KD ratio class): AA (a compound having 20 or more is denoted as AA) | HRAS/KRAS (ratio of KD value for HRAS to KD value for KRAS) ([3]; KD ratio class): A (a compound having 10 or more and less than 20 is denoted as A) | Kd [4, 5]: 0.087 nM

CC[C@H](C)[C@@H]1NC(=O)[C@H](C(C)C)N(C)C(=O)C[C@@H](C(=O)N(C)CC)N(C)C(=O)[C@H](C2CCCC2)N(C)C(=O)C2(CCC2)NC(=O)[C@@H]2C[C@H](C)CN2C(=O)[C@H](CCc2cc(F)c(C(F)(F)F)c(F)c2)NC(=O)CN(C)C(=O)[C@H](Cc2ccc(C(F)(F)F)cc2)N2CC/C=C\C[C@@H](C2=O)N(C)C(=O)CN(C)C1=O [PP2078]
IC50 [1]: 10.3 nM | NRAS/KRAS (ratio of KD value for NRAS to KD value for KRAS) [2]: AA (a compound having 20 or more is denoted as AA) | HRAS/KRAS (ratio of KD value for HRAS to KD value for KRAS) [3]: A (a compound having 10 or more and less than 20 is denoted as A) | Kd ([4]; SPR, Single Cycle Kinetics): 0.17 nM

CCC[C@H]1C(=O)N[C@@H]([C@@H](C)CC)C(=O)N(C)CC(=O)N(C)[C@H]2C/C=C\CCN(C2=O)[C@@H](Cc2ccc(C(F)F)cc2)C(=O)N(C)CC(=O)N[C@@H](CCc2ccc(Cl)c(Cl)c2)C(=O)N2C[C@H](OC3CCC3)C[C@H]2C(=O)NC2(CC(C)(C)C2)C(=O)N(C)[C@@H](C(CC)CC)C(=O)N(C)[C@H](C(=O)N(C)C)CC(=O)N1C [PP2643]
IC50 [1]: 32.7 nM | NRAS/KRAS (ratio of KD value with respect to GDP-bound NRAS wild-type protein to KD value with respect to KRAS) ([2]; SPR KD ratio NRAS/KRAS, class symbols): AA (a compound having 20 or more is denoted as AA) | HRAS/KRAS (ratio of KD value with respect to GDP-bound HRAS wild-type protein to KD value with respect to KRAS) ([3]; SPR KD ratio HRAS/KRAS, class symbols): A (a compound having 10 or more and less than 20 is denoted as A) | Kd ([4]; SPR Single Cycle Kinetics, 1:1 binding model): 0.49 nM

CCC[C@H]1C(=O)N[C@@H](CC(C)C)C(=O)N(CCOC)CC(=O)N(C)[C@H]2C/C=C\CCN(C2=O)[C@@H](Cc2ccc(C)cc2)C(=O)N(C)CC(=O)N[C@@H](CCc2cc(F)c(C(F)(F)F)c(F)c2)C(=O)N2C[C@H](OCC)C[C@H]2C(=O)NC2(CC(C)(C)C2)C(=O)N(C)[C@@H](C2CCCC2)C(=O)N(C)[C@H](C(=O)N(C)C)CC(=O)N1C [PP2520]
IC50 [1]: 210 nM | NRAS/KRAS (ratio of KD value for NRAS to KD value for KRAS) [2]: A (a compound having 10 or more and less than 20 is denoted as A) | HRAS/KRAS (ratio of KD value for HRAS to KD value for KRAS) [3]: A (a compound having 10 or more and less than 20 is denoted as A) | Kd ([4]; SPR, Single Cycle Kinetics): 3.3 nM

CC[C@H](C)[C@@H]1NC(=O)[C@H](CC)N(C)C(=O)C[C@@H](C(=O)N(C)C)N(C)C(=O)[C@H](C2CCCC2)N(C)C(=O)C2(CCC2)NC(=O)[C@@H]2CCCN2C(=O)[C@H](CCc2cc(F)c(C(F)(F)F)c(F)c2)NC(=O)CN(C)C(=O)[C@H](CC2CCC(F)(F)CC2)N2CC/C=C\C[C@@H](C2=O)N(C)C(=O)CN(C)C1=O [PP1461]
IC50 [1]: 121 nM | NRAS/KRAS (ratio of KD value for NRAS to KD value for KRAS) ([2]; KD ratio class): A (a compound having 10 or more and less than 20 is denoted as A) | HRAS/KRAS (ratio of KD value for HRAS to KD value for KRAS) ([3]; KD ratio class): A (a compound having 10 or more and less than 20 is denoted as A) | Kd [4, 5]: 0.27 nM
